From US8957024B2, “Composition and methods for reducing opioid-induced pruritus” (priority 2011, dated 2015)
“Also recorded” adds a separate entry of the source.

Assays:
mice [1] = details: mouse, in vivo
Myc-GRPR = target: T1, Myc-GRPR (Mus musculus, UniProt P21729); assay: Receptor internalization assay (ELISA, immunofluorescence staining) in HEK 293 cells: GRPR; type: cell-based; details: agonist 1 μM, 30 min
T1 construct: expressed in transfected cells

HA-MOR1D = target: T2, HA-MOR1D (Mus musculus, UniProt P42866); assay: Receptor internalization assay (ELISA, immunofluorescence staining) in HEK 293 cells: MOR1D; type: cell-based; details: HEK 293 cells expressing MOR1D, or MOR1D and GRPR; agonist 1 μM
T2 construct: expressed in transfected cells

HA-MOR1 = target: T3, HA-MOR1 (Mus musculus, UniProt P42866); assay: Receptor internalization assay (ELISA, immunofluorescence staining) in HEK 293 cells: MOR1; type: cell-based; details: HEK 293 cells expressing MOR1 only, or MOR1 and GRPR; agonist 1 μM
T3 construct: expressed in transfected cells

mice [2] = details: mouse, in vivo; remark: listed apart in the source
mice [3] = assay: Von Frey assay, naive mice and CFA inflammatory pain model; type: in vivo, mouse
Procedure: In CFA induced inflammatory pain, mice received an injection of CFA (20 μl, Sigma) into the plantar of the right hindpaw. Mechanical sensitivity was assessed using von Frey assay.
Mechanical sensitivity was assessed using a set of calibrated von Frey filaments (Stoelting). Each filament was applied 5 consecutive times and the smallest filament that evoked reflexive flinches of the paw on 3 of the 5 trials was taken as paw withdrawal threshold.

[4] = tested on: HEK 293 cells containing only GRPR; assay: Calcium imaging, cells containing only GRPR; type: cell-based, mouse
[5] = tested on: HEK 293 cells expressing MOR1D alone; assay: Calcium imaging, cells expressing MOR1D alone; type: cell-based, mouse
mice [6] = assay: Gastrin-releasing peptide induced scratching (GIS); type: in vivo, mouse
MOR1 mRNA = assay: qRT-PCR after i.t. siRNA: MOR1 mRNA; type: in vivo, mouse; details: spinal cord
Procedure: (§1) Selective siRNA duplexes for mouse Oprm exons, PLCβ1/3 and IP3R3 were intrathecally injected daily for 3 consecutive days. Behavior testing and tissue harvest were carried out at 48 hr after the last injection. RNA was dissolved in diethyl pyrocarbonate-treated PBS and prepared immediately prior to administration by mixing the RNA solution with a transfection reagent, ExGen 500 (Fermentas). The final concentration of RNA was 1.25 μg/5 μl. siRNA or ExGen 500 alone (defined as vehicle) in 5 μl was delivered to the lumbar region of the spinal cord. The injection was given daily for 3 consecutive days (Luo et al., 2005; Tan et al., 2009). Behavior testing and tissue harvest were carried out 48 hr after the last injection.
(§2) LCM were performed as previously described (van Baarlen et al., 2009) with minor modifications. Frozen sections (30 μm thickness) of the lumber spinal cord were cut at −20° C. and stored at −80° C. […]
(§3) RNA was isolated from the LCM sample caps using the PicoPure RNA isolation kit (Arcturus) following manufacturer's recommendations. […] Quantitative PCR amplification was performed in 96-well plates on an Mx3000 QPCR system (Stratagene). […]
(§4) Expression of target mRNA was normalized to expression of 18S rRNA. The differences in mRNA expression between treatments were analyzed using the Comparative CT Method (Gallup et al., 2005). […]

MOR1D mRNA = assay: qRT-PCR after i.t. siRNA: MOR1D mRNA; type: in vivo, mouse; details: spinal cord
Procedure: as §1, §2, §3, §4

GRPR/MOR1D interaction = target: T4, GRPR/MOR1D interaction (Mus musculus, UniProt P21729); details: in vivo
T4 construct: co-IP analysis using the membrane extracts of the spinal cord injected with Tat-MOR1DCT and the vehicle; from tissue; host or cells: lumbar spinal cord membrane extract after intrathecal injection

[7] = tested on: HEK 293 cells co-expressing MOR1 and GRPR; assay: Calcium imaging, cells co-expressing MOR1 and GRPR; type: cell-based, mouse
[8] = HEK 293 cells expressing GRPR alone

T4 sequence (P21729 whole entry): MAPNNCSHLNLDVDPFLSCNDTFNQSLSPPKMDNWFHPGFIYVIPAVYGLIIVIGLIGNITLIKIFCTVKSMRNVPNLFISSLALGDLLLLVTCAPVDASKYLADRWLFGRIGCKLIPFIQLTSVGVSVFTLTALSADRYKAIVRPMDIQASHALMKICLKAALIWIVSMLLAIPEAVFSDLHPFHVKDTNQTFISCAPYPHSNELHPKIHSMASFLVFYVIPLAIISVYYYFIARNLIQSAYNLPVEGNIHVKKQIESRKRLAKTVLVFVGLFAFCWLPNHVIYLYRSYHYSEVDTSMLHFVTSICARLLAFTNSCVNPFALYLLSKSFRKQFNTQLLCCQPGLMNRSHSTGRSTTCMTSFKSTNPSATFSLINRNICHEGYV
T1 sequence (P21729 whole entry): as above

## 2-APB
Mice [1]
  effect on MIA: no effect on MIA

## C[C@@H](NC(=O)[C@@H](N)Cc1ccc(O)cc1)C(=O)NCC(=O)N(C)[C@@H](Cc1ccccc1)C(=O)NCCO [DAMGO]
Myc-GRPR; [8]
  agonist-induced GRPR internalization: cannot internalize GRPR
HA-MOR1D
  agonist-induced MOR1D internalization: can be internalized
HA-MOR1
  agonist-induced MOR1 internalization: can be internalized

## COc1ccc2c(c1)CC[C@@H]1[C@@H]2CC[C@]2(C)[C@@H](NCCCCCCN3C(=O)C=CC3=O)CC[C@@H]12 [U73122]
Mice [1]
  effect on MIA: did not impact MIA; also recorded: not significantly affected

## COC(=O)/C=C/C(=O)N[C@@H]1CC[C@@]2(O)[C@H]3Cc4ccc(O)c5c4[C@@]2(CCN3CC2CC2)[C@H]1O5 [beta-FNA]
Mice [2]
  effect on MIS: significantly blocked

## CN1CC[C@]23c4c5ccc(O)c4O[C@H]2[C@@H](O)C=C[C@H]3[C@H]1C5 [morphine]
Mice [1]
  MIA enhancement when the morphine dose increased from 0.3 nmol to 1.0 nmol: 81%
  MIA in mice with acute morphine tolerance: significant reduction of MIA relative to the saline control
  MIA in mice with chronic morphine tolerance: significant reduction of MIA relative to the saline control; also recorded: showed antinociceptive tolerance
  MIA, dose effect of i.t. morphine: increased in a dose-dependent manner
  duration of MIA: maintained at a maximal level for at least one hr
Mice [3]; i.t. morphine 0.3 nmol, 24 hr after intraplantar CFA
  mechanical threshold in CFA-treated mice: significantly increased mechanical threshold
Myc-GRPR; HEK 293 cells co-expressing MOR1 and GRPR
  agonist-induced GRPR internalization: failed to induce GRPR internalization; also recorded: when co-expressed with HA-MOR1D but not HA-MOR1
Myc-GRPR; [8]
  agonist-induced GRPR internalization: failed to induce GRPR internalization
[4]
  calcium response to agonist: failed to evoke Ca2+ spikes
[5]
  calcium response to agonist: neither morphine nor GRP generated a calcium response
Mice [2]
  time after which no scratches were seen: 40 min
  time within which MIS increased dramatically: ≤ 10 min

## C=CCN1CC[C@]23c4c5ccc(O)c4O[C@H]2C(=O)CC[C@@]3(O)[C@H]1C5 [naloxone]
Mice [6]; naloxone 3 mg/kg s.c.
  effect on GIS: did not change GIS; also recorded: not significantly affected

## AAACCCUGCAAGAGUUGCAuu (AAACCCUGCAAGAGUUGCAUU; chemistry not given here) [exon 7 siRNA, siRNA duplex for mouse Oprm exon 7]
Mice [1]
  effect of siRNA knockdown on MIA: had no effect on MIA

## D-Phe-6-Bn(6-13)OMe [GRPR antagonist]
Mice [1]
  effect of the agent itself on acute pain, tail immersion assay: no significant effect on acute pain; also recorded: did not significantly affect the acute pain
  effect on MIA: remained unchanged; also recorded: not significantly affected
Mice [3]; GRPR antagonist 1.0 nmol co-injection, morphine 0.3 nmol i.t.
  effect on analgesic effect of intrathecal morphine in CFA model: not significantly affected
Mice [3]; i.t., without morphine
  effect of the agent itself on acute pain, von Frey: no significant effect on acute pain; also recorded: did not significantly affect the acute pain

## UCUGGAAGCAGAAACUGCUuu (UCUGGAAGCAGAAACUGCUUU; chemistry not given here) [exon 4 siRNA, siRNA duplex for mouse Oprm exon 4]
Mice [1]
  effect of siRNA knockdown on MIA: markedly attenuated MIA; also recorded: significantly reduced morphine analgesic effect
MOR1 mRNA
  spinal MOR1 mRNA level: selectively decreased; also recorded: significantly knocked down

## UGAGGAACCUUCUUCCUGAuu (UGAGGAACCUUCUUCCUGAUU; chemistry not given here) [exon 9 siRNA, siRNA duplex for mouse Oprm exon 9]
Mice [1]
  effect of siRNA knockdown on MIA: had no effect on MIA
Mice [6]; mouse, in vivo
  effect of siRNA knockdown on GIS: no significant reduction of GIS; also recorded: not affected
MOR1D mRNA
  spinal MOR1D mRNA level: significantly reduced

## YGRKKRRQRRRRNEEPSS [Tat-MOR1DCT]
Mice [1]
  effect on MIA: unperturbed; also recorded: had no effect on MIA
Mice [6]; mouse, in vivo
  effect on GIS: unperturbed; also recorded: without affecting GIS
GRPR/MOR1D interaction
  amount of GRPR precipitated by MOR1D antibody (GRPR/MOR1D interaction): significantly reduced the amount of GRPR precipitated by MOR1D antibody; also recorded: markedly reduces co-immunoprecipitation of GRPR and MOR1D; also recorded: decreased GRPR/MOR1D interaction

## gastrin-releasing peptide [GRP]
Mice [6]; i.t. GRP
  GIS in MOR KO vs wild-type littermate mice: normal; also recorded: comparable
HA-MOR1D
  agonist-induced MOR1D internalization: neither MOR1D nor MOR1 internalized; also recorded: failed to cause MOR1D internalization
HA-MOR1
  agonist-induced MOR1 internalization: neither MOR1D nor MOR1 internalized
[7]
  calcium response to agonist: they responded to GRP
[5]
  calcium response to agonist: neither morphine nor GRP generated a calcium response
